From patent US20120214760A1, “TREATMENT OF URINARY TRACT INFECTIONS WITH ANTIBACTERIAL AMINOGLYCOSIDE COMPOUNDS” (Achaogen, Inc., priority 2009, published 2012)
≈ marks a conversion by molar mass, not a printed value. Where two headings read alike, the source gives them in different places.

Tests used:
Assay type in all cases: cell-based
Klebsiella spp. (21) = test: MIC, urinary tract infection isolates
Experimental: (§1) Minimum inhibitory concentrations (MIC) were determined by reference Clinical and Laboratory Standards Institute (CLSI) broth microdilution methods per M7-A7 [2006]. Quality control ranges utilizing E. coli ATCC 25922, P. aeruginosa ATCC 27853 and S. aureus ATCC 29213, and interpretive criteria for comparator agents were as published in CLSI M100-S17 [2007]. Briefly, serial two-fold dilutions of the test compounds were prepared at 2× concentration in Mueller Hinton Broth. The compound dilutions were mixed in 96-well assay plates in a 1:1 ratio with bacterial inoculum. The inoculum was prepared by suspension of a colony from an agar plate that was prepared the previous day. Bacteria were suspended in sterile saline and added to each assay plate to obtain a final concentration of 5×10^5 CFU/mL. The plates were incubated at 35° C. for 20 hours in ambient air.
(§2) In order to determine the activity of representative antibacterial aminoglycoside compounds against bacterial species that commonly cause complicated urinary tract infections worldwide, isolates were collected from 47 medical centers in the U.S. and Europe (10 countries) from urine or blood culture with the source of bacteremia documented as a urinary tract infection. Strains were susceptibility tested against Example 1, gentamicin, amikacin and 10 comparators by CLSI broth microdilution. These MIC assays were conducted following the same protocol as set forth in Example 110. Pathogens (169 in total) included E. coli, Klebsiella spp., Enterobacter spp., Citrobacter spp., P. mirabilis, M. Morganii, P. aeruginosa, S. aureus and S. saprophyticus.

P. mirabilis (20) = test: MIC, urinary tract infection isolates
Experimental: as §1, §2

Citrobacter spp. (15) = test: MIC, urinary tract infection isolates
Experimental: as §1, §2

M. morganii (15) = test: MIC, urinary tract infection isolates
Experimental: as §1, §2

S. saprophyticus (19) = test: MIC, urinary tract infection isolates; conditions: S. saprophyticus
Experimental: as §1, §2

P. aeruginosa (19) = test: MIC, urinary tract infection isolates; conditions: P. aeruginosa
Experimental: as §1, §2

S. aureus (23) = test: MIC, urinary tract infection isolates; conditions: S. aureus
Experimental: as §1, §2

Enterobacter spp. (16) = test: MIC, urinary tract infection isolates
Experimental: as §1, §2

E. coli (21) = test: MIC, urinary tract infection isolates
Experimental: as §1, §2

[1] = tested on: E. coli ATCC 25922 (AECO001); test: MIC, CLSI broth microdilution; conditions: for MIC: Escherichia coli
How it was run: (§3)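 CLSI M7-A7 broth microdilution; 2-fold serial dilutions in Mueller Hinton Broth, 1:1 with inoculum; final 5×10^5 CFU/mL; 35° C., 20 h, ambient air. QC strains E. coli ATCC 25922, P. aeruginosa ATCC 27853, S. aureus ATCC 29213.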

E. coli AECO 1003, MDR = test: MIC of thigh model strain; conditions: Escherichia coli
Experimental: as §1

[2] = tested on: K. pneumoniae AKPN 1073, MDR; test: MIC of thigh model strain; conditions: Klebsiella pneumoniae; Table 5; K. pneumoniae MDR AKPN 1073
Experimental: as §1

[3] = tested on: S. marcescens ASMA 1030, KPC; test: MIC of thigh model strain; conditions: Serratia marcescens; Table 5; S. marcescens KPC ASMA 1030
Experimental: as §1

[4] = tested on: S. aureus ATCC 33591, MRSA; test: MIC of thigh model strain; conditions: Staphylococcus aureus
Experimental: as §1

[5] = tested on: K. pneumoniae ATCC 43816, Susceptible; test: MIC of thigh model strain; conditions: Klebsiella pneumoniae, ATCC43816; Table 5; K. pneumoniae Susceptible ATCC 43816
Experimental: as §1

[6] = tested on: K. pneumoniae AKPN 1109, KPC; test: MIC of thigh model strain; conditions: Klebsiella pneumoniae; Table 5; K. pneumoniae KPC AKPN 1109
Experimental: as §1

Pathogens (169 in total) = test: Susceptibility testing, all urinary tract infection isolates; conditions: all 169 isolates
Experimental: as §1, §2

Staphylococcal isolates = test: Susceptibility testing, urinary tract infection isolates
Experimental: as §1
In order to determine the activity of representative antibacterial aminoglycoside compounds against bacterial species that commonly cause complicated urinary tract infections worldwide, isolates were collected from 47 medical centers in the U.S. and Europe (10 countries) from urine or blood culture with the source of bacteremia documented as a urinary tract infection. Strains were susceptibility tested against Example 1, gentamicin, amikacin and 10 comparators by CLSI broth microdilution. […]

[7] = tested on: P. aeruginosa ATCC 27853 (APAE001); test: MIC, CLSI broth microdilution; conditions: Pseudomonas aeruginosa, ATCC27853, read-out: MIC APAE001, Table 1; APAE001 is ATCC27853
How it was run: as §3

[8] = tested on: A. calcoaceticus AACA005, AAC(6′)-I; test: MIC, aminoglycoside resistant strain; conditions: Table 3
Experimental: as §1
(§4) These MIC assays were conducted following the same protocol as set forth in Example 110. As shown, substituted sisomicin derivatives with groups other than methyl at the 6′-position have improved activity against strains expressing the AAC6′-modifying enzymes.

[9] = tested on: S. marcescens ASMA003, ANT(2″) + AAC(6′); test: MIC, aminoglycoside resistant strain; conditions: Table 3
Experimental: as §1, §4

[10] = tested on: E. coli AECO040, AAC(6′)-I; test: MIC, aminoglycoside resistant strain; conditions: Table 3
Experimental: as §1, §4

CN[C@@H]1[C@@H](O)[C@@H](O[C@@H]2[C@@H](O)[C@H](O[C@H]3OC(CNCCO)=CC[C@H]3N)[C@@H](N)C[C@H]2NC(=O)[C@@H](O)CCN)OC[C@]1(C)O.O=S(=O)(O)O [ACHN-490]
Cumulative % inhibited at ACHN-490 MIC (Klebsiella spp. (21); at 0.5 μg/ml): 95.2%
Cumulative % inhibited at ACHN-490 MIC (Klebsiella spp. (21); at 1 μg/ml): 100.0%
Cumulative % inhibited at ACHN-490 MIC (Klebsiella spp. (21); at ≦0.25 μg/ml): 19.0%
Cumulative % inhibited at ACHN-490 MIC (P. mirabilis (20); at 0.5 μg/ml): 0.0%
Cumulative % inhibited at ACHN-490 MIC (P. mirabilis (20); at 1 μg/ml): 5.0%
Cumulative % inhibited at ACHN-490 MIC (P. mirabilis (20); at 2 μg/ml): 45.0%
Cumulative % inhibited at ACHN-490 MIC (P. mirabilis (20); at 4 μg/ml): 90.0%
Cumulative % inhibited at ACHN-490 MIC (P. mirabilis (20); at 8 μg/ml): 95.0%
Cumulative % inhibited at ACHN-490 MIC (P. mirabilis (20); at 16 μg/ml): 100.0%
Cumulative % inhibited at ACHN-490 MIC (P. mirabilis (20); at ≦0.25 μg/ml): 0.0%
Cumulative % inhibited at ACHN-490 MIC (Citrobacter spp. (15); at 0.5 μg/ml): 73.3%
Cumulative % inhibited at ACHN-490 MIC (Citrobacter spp. (15); at 1 μg/ml): 86.7%
Cumulative % inhibited at ACHN-490 MIC (Citrobacter spp. (15); at 2 μg/ml): 93.3%
Cumulative % inhibited at ACHN-490 MIC (Citrobacter spp. (15); at 4 μg/ml): 100.0%
Cumulative % inhibited at ACHN-490 MIC (Citrobacter spp. (15); at ≦0.25 μg/ml): 0.0%
Cumulative % inhibited at ACHN-490 MIC (M. morganii (15); at 0.5 μg/ml): 0.0%
Cumulative % inhibited at ACHN-490 MIC (M. morganii (15); at 1 μg/ml): 6.7%
Cumulative % inhibited at ACHN-490 MIC (M. morganii (15); at 2 μg/ml): 60.0%
Cumulative % inhibited at ACHN-490 MIC (M. morganii (15); at 4 μg/ml): 86.7%
Cumulative % inhibited at ACHN-490 MIC (M. morganii (15); at 8 μg/ml): 100.0%
Cumulative % inhibited at ACHN-490 MIC (M. morganii (15); at ≦0.25 μg/ml): 0.0%
Cumulative % inhibited at ACHN-490 MIC (S. saprophyticus (19); at 0.5 μg/ml): 94.7%
Cumulative % inhibited at ACHN-490 MIC (S. saprophyticus (19); at 1 μg/ml): 100.0%
Cumulative % inhibited at ACHN-490 MIC (S. saprophyticus (19); at ≦0.25 μg/ml): 89.5%
Cumulative % inhibited at ACHN-490 MIC (P. aeruginosa (19); at 0.5 μg/ml): 0.0%
Cumulative % inhibited at ACHN-490 MIC (P. aeruginosa (19); at 1 μg/ml): 0.0%
Cumulative % inhibited at ACHN-490 MIC (P. aeruginosa (19); at 2 μg/ml): 0.0%
Cumulative % inhibited at ACHN-490 MIC (P. aeruginosa (19); at 4 μg/ml): 36.8%
Cumulative % inhibited at ACHN-490 MIC (P. aeruginosa (19); at 8 μg/ml): 73.7%
Cumulative % inhibited at ACHN-490 MIC (P. aeruginosa (19); at 16 μg/ml): 89.5%
Cumulative % inhibited at ACHN-490 MIC (P. aeruginosa (19); at 32 μg/ml): 100.0%
Cumulative % inhibited at ACHN-490 MIC (P. aeruginosa (19); at ≦0.25 μg/ml): 0.0%
Cumulative % inhibited at ACHN-490 MIC (S. aureus (23); at 0.5 μg/ml): 13.0%
Cumulative % inhibited at ACHN-490 MIC (S. aureus (23); at 1 μg/ml): 60.9%
Cumulative % inhibited at ACHN-490 MIC (S. aureus (23); at 2 μg/ml): 95.7%
Cumulative % inhibited at ACHN-490 MIC (S. aureus (23); at 4 μg/ml): 100.0%
Cumulative % inhibited at ACHN-490 MIC (S. aureus (23); at ≦0.25 μg/ml): 0.0%
Cumulative % inhibited at ACHN-490 MIC (Enterobacter spp. (16); at 0.5 μg/ml): 75.0%
Cumulative % inhibited at ACHN-490 MIC (Enterobacter spp. (16); at 1 μg/ml): 100.0%
Cumulative % inhibited at ACHN-490 MIC (Enterobacter spp. (16); at ≦0.25 μg/ml): 0.0%
Cumulative % inhibited at ACHN-490 MIC (E. coli (21); at 0.5 μg/ml): 19.0%
Cumulative % inhibited at ACHN-490 MIC (E. coli (21); at 1 μg/ml): 61.9%
Cumulative % inhibited at ACHN-490 MIC (E. coli (21); at 2 μg/ml): 100.0%
Cumulative % inhibited at ACHN-490 MIC (E. coli (21); at ≦0.25 μg/ml): 0.0%

C[C@@H](O)[C@H]1C(=O)N2C(C(=O)O)=C(SCCN=CN)C[C@H]12 [IMP, imipenem, reference compound]
MIC ([1]; ATCC25922, Table 5, E. coli Susceptible ATCC 25922): 0.125 mg/L (≈ 0.418 µM)
MIC (E. coli AECO 1003, MDR): 0.125 mg/L
MIC [2]: 0.25 mg/L
MIC [3]: > 32 mg/L
MIC ([4]; Table 5, S. aureus MRSA ATCC 33591, read-out: MIC): > 16 mg/L
MIC [5]: 0.5 mg/L
MIC [6]: 32 mg/L

NCC[C@H](O)C(=O)N[C@@H]1C[C@H](N)[C@@H](O[C@H]2O[C@H](CN)[C@@H](O)[C@H](O)[C@H]2O)[C@H](O)[C@H]1O[C@H]1O[C@H](CO)[C@@H](O)[C@H](N)[C@H]1O [Amikacin, amikacin, reference compound]
Overall susceptibility rate (Pathogens (169 in total)): 94.1%

CN[C@H](CC(C)C)C(=O)N[C@H]1C(=O)N[C@@H](CC(N)=O)C(=O)N[C@H]2C(=O)N[C@H]3C(=O)N[C@H](C(=O)N[C@H](C(=O)O)c4cc(O)cc(O)c4-c4cc3ccc4O)[C@H](O)c3ccc(c(Cl)c3)Oc3cc2cc(c3O[C@@H]2O[C@H](CO)[C@@H](O)[C@H](O)[C@H]2O[C@H]2C[C@](C)(N)[C@H](O)[C@H](C)O2)Oc2ccc(cc2Cl)[C@H]1O [VAN, vancomycin]
MIC [4]: 1 mg/L

O=C1CN(/N=C/c2ccc([N+](=O)[O-])o2)C(=O)N1 [nitrofurantoin]
Staphylococcal susceptibility rate (Staphylococcal isolates): 33.3%

CN[C@@H]1[C@@H](O)[C@@H](O[C@@H]2[C@@H](O)[C@H](O[C@H]3OC(CNCC4CCNCC4)=CC[C@H]3N)[C@@H](N)C[C@H]2NC(=O)[C@@H](O)CCN)OC[C@]1(C)O [Example 12, 6′-(Methyl-piperidin-4-yl)-1-(4-amino-2(S)-hydroxy-butyryl)-sisomicin]
MIC [7]: 1 to 16 mg/L (≈ 1.55 to 24.8 µM)
MIC ([1]; ATCC25922, read-out: MIC AECO001, Table 1, AECO001 is ATCC25922): 1 to 16 mg/L (≈ 1.55 to 24.8 µM)
MIC AECO001 ([1]; Table 3, ATCC25922): 1 mg/L (≈ 1.55 µM)
MIC AACA005 [8]: 2 mg/L (≈ 3.1 µM)
MIC ASMA003 [9]: 4 mg/L (≈ 6.19 µM)
MIC AECO040 [10]: 0.5 mg/L (≈ 0.774 µM)
